From patent US20250236599A1, “LIPID NANOPARTICLES FOR OLIGONUCLEOTIDE DELIVERY” (ZIPHIUS NV, priority 2021, published 2025)

Columns and labels:
[1] = Weight evolution of the animals following administration of LNPs; assay type: in vivo; conditions: female SWISS mice
Method: (§1) Female SWISS mice (6 weeks old) were purchased from Janvier Laboratories (Paris, France) and kept in individually ventilated cages with access to food and water ad libitum. Mice were anesthetized with isoflurane (Zoetis, Louvain-La-Neuve, Belgium) (5% for induction and 2% for maintenance) and intramuscularly injected with a total of 1 μg in 100 μL Tris-HCL (50 μL per leg) LNP-formulated luciferase saRNA (for each group n=7). The expression of the luciferase induced bioluminescence was measured via non-invasive In vivo bioluminescent imaging (In vivo Imaging System (IVIS) Lumina III, Perkin Elmer, Waltham, Massachusetts, USA), 10 minutes after subcutaneous injection of […] of D-luciferin (GoldBio, Saint Louis, Missouri, USA, #LUCK-1G) were measured in day 0 (before injection), day 1, day 3, day 5, day 7, day 10, day 15 and day 20.

[2] = saRNA loading / encapsulation efficiency, Quant-IT RiboGreen assay; assay type: physicochemical; conditions: LNP lipid:DOPE:Cholesterol:DMG-PEG 35:20:43.5:1.5, firefly luciferase saRNA
Method: The saRNA loading in LNP formulations was quantified using a Quant-IT RiboGreen assay (Thermo Fisher Scientific, Waltham, Massachusetts, USA) as previously described. 14 samples were diluted tenfold in 1x Tris HCL-EDTA (TE) buffer (10 mM Tris-HCL, 1 mM EDTA, pH 7.5) with or without 2% (v/v) Triton X-100 (Sigma-Aldrich, Saint Louis, Missouri, USA). Standard solutions were also prepared in 1xTE with or without 2% (v/v) Triton X-100 to account for any variation in fluorescence. The assay was performed according to the manufacturer's protocol. Samples were loaded on a black 96-well plate and analysed for fluorescence on a microplate reader (Tecan Infinite® 200 PRO) at an excitation of 485 nm and emission at 528 nm. Encapsulation efficiency was calculated between 80-100%.

[3] = LNP particle size, polydispersity index and charge by Zeta Sizer; assay type: physicochemical; conditions: LNP lipid:DOPE:Cholesterol:DMG-PEG 35:20:43.5:1.5, firefly luciferase saRNA
Method: Cationic lipids, DOPE, Cholesterol and DMG-PEG lipid were solubilized in ethanol or DMSO at a molar ratio of 35:20:43.5:1.5 and a concentration of 100:25:20:25 μg/μL for C12-200 or 170:25:20:25 μg/μL for the comparator lipids. Lipid nanoparticles (LNP) were prepared by targeting an N/P ratio of approximately 40/1 with saRNA. Briefly, the firefly luciferase saRNA of approximately 9659 nucleotides was diluted to 0.5 mg/mL in 5 mM citrate buffer, pH 4.5. Microfluidic mixer (Ignite from Precision Nanosystems, California, USA) was used to mix the lipid solution with the saRNA aqueous solution at a ratio of about 1:3 (vol/vol) with total flow rates above 10 ml/min. The ethanol was then removed, and the external buffer replaced with 10 mM TRIS-HCL, PH 7.4, by dialysis. Finally, the lipid nanoparticles were filtered through a 0.2 μm pore sterile filter. Lipid nanoparticle particle size was 50-150 nm diameter and polydispersity index (PI) of 0.1-0.4 as determined by Zeta Sizer (Malvern Panalytical, UK). The charge of the formulation was also measured by Zeta Sizer and ranged between 20 to −20 mV.

[4] = tested on: expression of the luciferase saRNA; assay: In vivo bioluminescent imaging after intramuscular injection of LNP-formulated luciferase saRNA; conditions: 1 μg LNP-formulated luciferase saRNA intramuscularly, female SWISS mice
Method: as §1

[5] = Day 1, 1 μg LNP-formulated saRNA intramuscularly
[6] = Day 3, 1 μg LNP-formulated saRNA intramuscularly
[7] = Day 5, 1 μg LNP-formulated saRNA intramuscularly
[8] = Day 7, 1 μg LNP-formulated saRNA intramuscularly
[9] = Day 10, 1 μg LNP-formulated saRNA intramuscularly
[10] = Day 15, 1 μg LNP-formulated saRNA intramuscularly
[11] = Day 20, 1 μg LNP-formulated saRNA intramuscularly

Row | SMILES | Weight ([1]; Day 0) [g] | Weight [1, 5] [g] | Weight [1, 6] [g] | Weight [1, 7] [g] | Weight [1, 8] [g] | Weight [1, 9] [g] | Weight [1, 10] [g] | Weight [1, 11] [g] | Encapsulation (%) [2] [%] | Zetapotential (mV) [3] [mV] | Polydispersity Index (PI) ([3]; N/P approx. 40/1) | Z-average (nm) ([3]; N/P approx. 40/1) | Bioluminescence expression of LNPs ([4]; Day 1) | Bioluminescence expression of LNPs ([4]; Day 3) | Bioluminescence expression of LNPs ([4]; Day 5) | Bioluminescence expression of LNPs ([4]; Day 7) | Bioluminescence expression of LNPs ([4]; Day 10) | Bioluminescence expression of LNPs ([4]; Day 15) | Bioluminescence expression of LNPs ([4]; Day 20)
1 | CCCCCCCCCCCCCCOC(=O)CCN(CCC(=O)OCCCCCCCCCCCCCC)CCN1CCN(CCN(CCC(=O)OCCCCCCCCCCCCCC)CCC(=O)OCCCCCCCCCCCCCC)CC1 [Comparator 1 (C1), reference compound] | 26.56 | 25.99 | 27.21 | 27.59 | 27.09 | 27.17 | 29.43 | 30.11 | 99.03 | 9.07 | 0.16 | 70.96 | – | – | – | – | – | – | –
2 | CCCCCCC(CCCC)C(=O)OCCCCCCN(CCCCCCOC(=O)C(CCCC)CCCCCC)CCN(CCCCCCOC(=O)C(CCCC)CCCCCC)CCN1CCN(CCN(CCCCCCOC(=O)C(CCCC)CCCCCC)CCCCCCOC(=O)C(CCCC)CCCCCC)CC1 (centres unmarked) [Compound 9-28, ((2-(4-(2-((2-(bis(6-((2-butyloctanoyl)oxy)hexyl)amino)ethyl) (6-((2-butyloctanoyl)oxy)hexyl)amino)ethyl)piperazin-1-yl)ethyl)azanediyl)bis(hexane-6,1-diyl)bis(2-butyloctanoate)] | 28.36 | 27.19 | 29.44 | 29.17 | 29.37 | 29.39 | 31.43 | 32.46 | – | – | – | – | 1.01E+08 | 8.67E+08 | 9.45E+08 | 5.65E+08 | 2.08E+06 | 8.15E+04 | 3.35E+04
3 | CCCCCCCCC(CCCCCC)C(=O)OCCCCCCN(CCCCCCOC(=O)C(CCCCCC)CCCCCCCC)CCN(CCCCCCOC(=O)C(CCCCCC)CCCCCCCC)CCN1CCN(CCN(CCCCCCOC(=O)C(CCCCCC)CCCCCCCC)CCCCCCOC(=O)C(CCCCCC)CCCCCCCC)CC1 (centres unmarked) [Compound 9-31, ((2-(4-(2-((2-(bis(6-((2-hexyldecanoyl)oxy)hexyl)amino)ethyl) (6-((2-hexyldecanoyl)oxy)hexyl)amino)ethyl)piperazin-1-yl)ethyl)azanediyl)bis (hexane-6,1-diyl)bis(2-hexyldecanoate)] | 27.70 | 26.17 | 28.46 | 27.66 | 28.29 | 28.27 | 29.76 | 30.90 | – | – | – | – | 3.10E+07 | 2.74E+08 | 5.31E+08 | 2.16E+08 | 2.22E+06 | 2.46E+05 | 2.71E+04
4 | CCCCCCCCC(CCCCCC)C(=O)OCCN(CCOC(=O)C(CCCCCC)CCCCCCCC)CCN1CCN(CCN(CCOC(=O)C(CCCCCC)CCCCCCCC)CCOC(=O)C(CCCCCC)CCCCCCCC)CC1 (centres unmarked) [Compound 9-35, ((piperazine-1,4-diylbis(ethane-2,1-diyl))bis(azanetriyl))tetrakis(ethane-2,1-diyl)tetrakis(2-hexyldecanoate)] | 30.01 | 30.06 | 30.43 | 29.87 | 30.30 | 31.23 | 32.13 | 32.23 | – | – | – | – | 8.83E+05 | 9.99E+07 | 5.92E+07 | 6.45E+07 | 5.62E+07 | 6.82E+05 | 2.44E+05
5 | CCCCCCC(CCCC)C(=O)NCCCCCCN(CCCCCCNC(=O)C(CCCC)CCCCCC)CCN(CCCCCCNC(=O)C(CCCC)CCCCCC)CCN1CCN(CCN(CCCCCCNC(=O)C(CCCC)CCCCCC)CCCCCCNC(=O)C(CCCC)CCCCCC)CC1 (centres unmarked) [Compound 9-40, N,N'-(((2-(4-(2-((2-(bis(6-(2-butyloctanamido)hexyl)amino)ethyl) (6-(2-butyloctanamido)hexyl)amino)ethyl)piperazin-1-yl)ethyl)azanediyl)bis(hexane-6,1-diyl))bis(2-butyloctanamide)] | 30.11 | 29.54 | 29.41 | 29.19 | 30.31 | 30.51 | 31.09 | 32.37 | – | – | – | – | 6.07E+07 | 6.79E+08 | 1.14E+09 | 8.88E+08 | 2.00E+07 | 1.32E+06 | 2.64E+05
6 | CCCCCCC(CCCC)C(=O)NCCCCCCN(CCCCCCNC(=O)C(CCCC)CCCCCC)CCN1CCN(CCN(CCCCCCNC(=O)C(CCCC)CCCCCC)CCCCCCNC(=O)C(CCCC)CCCCCC)CC1 (centres unmarked) [Compound 9-41, N, N', N″, N″'-(((piperazine-1,4-diylbis(ethane-2,1-diyl))bis(azanetriyl))tetrakis(hexane-6,1-diyl))tetrakis(2-butyloctanamide)] | 29.19 | 29.19 | 29.43 | 29.21 | 30.44 | 31.06 | 31.26 | 31.77 | – | – | – | – | – | – | – | – | – | – | –
